SMILES strings stand for the structures. Counter-ions that a name gives are not always drawn.

The results in this text go back to US5565475A, “Method of treating urinary bladder dysfunctions with 3-tetrahydropyridine derivatives” (priority 1994, dated 1996).

For test [1], the target named is muscarinic receptors. Put plainly: Inhibition of 3H-oxotremorine-M binding to muscarinic receptors (rat cerebral cortical membranes). Also on record: species or system rat (male Sprague-Dawley). As to conditions: 3 nM 3H-oxotremorine-M, pH 7.4, 15 minutes at 25° C., read-out: Inhibition of 3H-Oxo. As to the method:
The affinity of the compounds for the muscarinic receptors was determined using the non-selective agonist ligand, ^3 H-oxotremorine-M. Birdsdall N. J. M., Hulme E. C., and Burgen A. S. V., "The Character of Muscarinic Receptors in Different Regions of the Rat Brain", 207 Proc. Roy. Soc. 1 (London, Series B, 1980). Each compound was tested to determine the affinity of the compound for the muscarinic receptors using the following procedure.
For in vitro binding, male Sprague-Dawley (Harlan Sprague-Dawley, Indianapolis, IN) rats weighing from about 100 to about 150 grams each were sacrificed by decapitation. The brains were quickly removed and the cerebral cortex were dissected from the brain. The cerebral cortex tissue was homogenized in 10 volumes of 0.32M sucrose and homogenized for about 10 minutes at about 1000×g. The supernatant was centrifuged at about 12,000×g for about 10 minutes and the resulting pellet was resuspended in 20 mM tris-Cl, pH 7.4. The resuspended pellet was centrifuged again for about 10 minutes at about 50,000×g. The resulting homogenate was preincubated for about 10 minutes at about 25° C. and centrifuged again for about 10 minutes at about 50,000×g. The pellet was resuspended at 1 gram of pellet per 3 ml of buffer and frozen at about -80° C. until used.
The aforementioned homogenates mixture was incubated for about 15 minutes at about 25° C. and then the homogenates were filtered through glass filters (Whatman, GF/C) with vacuum. The filters were washed 3 times with about 2 ml of cold tris-Cl buffer, and placed in scintillation vials containing about 10 ml of scintillation fluid (Ready Protein+, Beckman, Fullerton, Calif.). Radioactivity trapped on the filters was determined by liquid scintillation spectrometry. Nonspecific binding was determined using 1 μM atropine.

Test [2] deals with vesico-anal reflex. Put plainly: Acetic acid-induced vesico-anal reflex (model of visceral nociception). Type of test: in vivo, rat (female Sprague-Dawley). As to conditions: for duration of the increase in vesico-anal reflex activity / increases in vesico-anal reflex activity when administered alone: atropine 30 μg/kg-1 mg/kg, oxybutynin 1-3 mg/kg, administered alone. From the text: The model of visceral nociception that was used in the testing of the compounds according to the method of this invention is the acetic acid-induced vesico-anal reflex. This model utilizes infusion of a dilute acetic acid solution into the urinary bladder as a nociceptive stimulus and records increases in electromyographic (EMG) activity from the anal sphincter as the primary measured response. Anal sphincter EMG activity is composed of 2 components, 1) a small, long duration action potential (ca. 50 msec) that is sensitive to muscarinic antagonists and 2) a larger, short duration action potential (ca. 2 msec) that is sensitive to neuromuscular blocking agents (i.e. mediated by nicotinic receptors). These components represent rectal longitudinal smooth muscle activity and external anal sphincter striated muscle activity, respectively, and have been described in detail in a separate publication (Muhlhauser reference). It is the striated anal sphincter muscle activity that 1) is associated with bladder activity, 2) is increased by acetic acid infusion into the bladder, and 3) represents the vesico-anal reflex. The acetic acid-inducedincrease in vesico-anal reflex activity is maintained for over 2 hours in 95% of the animals.
In the acetic acid-induced vesico-anal reflex model, bladders of urethane-anesthetized rats were cannulated through the dome for continuous-infusion cystometrogram recordings. EMG electrodes were inserted into the anus and the peri-urethral musculature for recording anal and urethral sphincteric activity, respectively. Infusion of 0.5% acetic acid into the bladder or urethra produced modest increases in bladder contractile activity and urethral sphincter activity and pronounced increases in anal sphincter activity (i.e. an increase in the vesico-anal reflex). […] These studies indicate that a tonically-active, endogenous, cholinergic muscarinic system plays a role in the suppression of visceral nociception arising from the lower urinary tract.
Female Sprague-Dawley rats (200-300 g) were anesthetized with 1.4 g/kg urethane (0.7 g administered i.p. and 0.7 g administered s.c.), which was supplemented with 1% isoflurane during surgery. The urinary bladder was exposed through an abdominal incision and cannulated with PE60 tubing attached to a 22 gauge needle that was inserted through the dome of the bladder. A purse-string suture (5-0 silk) through the bladder held the needle in place. The cannula was connected to an infusion pump (Harvard Apparatus, ratus, Natick Mass.) and a pressure transducer (Statham Gould, Cleveland, Ohio) through a 3 way stopcock to allow bladder filling and pressure measurement, respectively. The abdominal incision was covered with plastic wrap. A small incision was made in the perineum to allow placement of EMG electrodes into the periurethral musculature. EMG electrodes were also placed into the muscular tissue of the anus. EMG electrodes were connected to preamplifiers (Grass P511, Quincey, Mass.) with low and high pass filters set at 10 and 3000 HZ. […] A catheter inserted into the carotid artery was connected to a pressure transducer (Statham Gould, Cleveland, Ohio) to record arterial pressure, which was used to trigger a heart rate meter (Biotach, Gould, Cleveland, Ohio). A catheter was inserted into the trachea to allow for artificial respiration and monitoring of expired CO2 (Sensor Medics, Anaheim, Calif.). EMG potentials, rate meter output, bladder and arterial pressure, heart rate, and expired CO2 measurements were recorded on a physiograph (Gould, TA4000, Cleveland, Ohio) and stored on an 8-channel digital audio tape recorder (SONY PC-108M, Tokyo, Japan).
After establishing control levels of anal and urethral activity, compounds were administered intravenously. […]

Turning to `COc1nsnc1C1=CCCN(C)C1` [Compound 1, 1,2,5,6-Tetrahydro-3-(3-methoxy-1,2,5-thiadiazol-4-yl)-1-methylpyridine oxalate], in test [1], the IC50 came out at 22 nM. Regarding `CCOc1nsnc1C1=CCCN(C)C1` [Compound 2, 3-(3-Ethoxy-1,2,5-thiadiazol-4-yl)-1,2,5,6-tetrahydro-1-methylpyridine oxalate], the IC50 in test [1] is 5.7 nM.

Consider `CCCOc1nsnc1C1=CCCN(C)C1` [Compound 3, 1,2,5,6-Tetrahydro-1-methyl-3-(3-propoxy-1,2,5-thiadiazol-4-yl)pyridine oxalate], for which the IC50 in test [1] was determined as 1.6 nM. `CCCCOc1nsnc1C1=CCCN(C)C1` [Compound 4, 3-(3-Butoxy-1,2,5-thiadiazol-4-yl)-1,2,5,6-tetrahydro-1-methylpyridine oxalate]: the IC50 in test [1] came out at 2 nM. As to `C=CCCCCOc1nsnc1C1=CCCN(C)C1` [Compound 33, 3-(3-(5-Hexenyloxy)-1,2,5-thiadiazol-4-yl)-1,2,5,6-tetrahydro-1-methylpyridine oxalate], the IC50 in test [1] was 2.7 nM. In the case of `CCCSc1nsnc1C1=CCCN(C)C1` [Compound 47, 3-(3-Propylthio-1,2,5-thiadiazol-4-yl)-1,2,5,6-tetrahydro-1-methylpyridine oxalate], the IC50 in test [1] was 0.9 nM. On to `O=C1CCCN1CC#CCN1CCCC1` [Oxotremorine], for which, in test [2] (atropine 0.3-1 mg/kg), the “reversal of the inhibition of vesico-anal reflex activity by atropine” value was “reversed by atropine”. In test [2] (oxotremorine 1-30 μg/kg iv, test compounds 0.01-1.0 mg/kg iv), the “vesico-anal reflex activity (inhibited to % of control)” value was 10 % of control. Moreover, the “inhibition of vesico-anal reflex activity” value in test [2] (oxotremorine 1-30 μg/kg iv, test compounds 0.01-1.0 mg/kg iv, urethane-anesthetized rats, 0.5% acetic acid) was “dose-dependent inhibition of vesico-anal reflex activity”.

On to `C[N+]1(C)[C@@H]2C[C@@H](OC(=O)[C@H](CO)c3ccccc3)C[C@H]1[C@@H]1O[C@@H]12` [Scopolamine methyl bromide], for which, in test [2] (1-30 ug/kg), the “blocking of the cholinergic agonist-mediated inhibition of the vesico-anal reflex” value is given as “ineffective at blocking the cholinergic agonist-mediated inhibition of the vesico-anal reflex”. In the case of `CN1[C@@H]2CC[C@H]1C[C@@H](OC(=O)C(CO)c1ccccc1)C2` (stereo partly drawn) [atropine], in test [2], the “duration of the increase in vesico-anal reflex activity” value was 15 min and the “increases in vesico-anal reflex activity when administered alone” value is “robust, but transient”. For the molecule `CCN(CC)CC#CCOC(=O)C(O)(c1ccccc1)C1CCCCC1` (stereo not drawn) [oxybutynin], in test [2], the “duration of the increase in vesico-anal reflex activity” value was found to be 15 min and the “increases in vesico-anal reflex activity when administered alone” value is recorded as “robust, but transient”. For the molecule `CNC(=O)Oc1ccc2c(c1)[C@]1(C)CCN(C)[C@@H]1N2C` [physostigmine], in test [2] (rat, in vivo), the “suppression of the VA reflex by cholinesterase inhibitors” value is given as “suppressed the VA reflex in a dose-dependent, atropine-sensitive manner”.
